Reference: publication PMC7827406, “Structure–Activity Relationship (SAR) Study of Spautin-1 to Entail the Discovery of Novel NEK4 Inhibitors” (International Journal of Molecular Sciences, 2021)
Read-outs that look alike come from different tables or passages of the source.

Legend:
Experiment in all cases: biochemical
Set-up in all cases: Eurofins KinaseProfiler full panel at Km ATP, residual kinase activity (%) relative to DMSO
SAPK4(h) = molecular target: T1, SAPK4(h) (Homo sapiens, UniProt O15264)
T1 construct: gene MAPK13
T1 sequence (O15264 1-365): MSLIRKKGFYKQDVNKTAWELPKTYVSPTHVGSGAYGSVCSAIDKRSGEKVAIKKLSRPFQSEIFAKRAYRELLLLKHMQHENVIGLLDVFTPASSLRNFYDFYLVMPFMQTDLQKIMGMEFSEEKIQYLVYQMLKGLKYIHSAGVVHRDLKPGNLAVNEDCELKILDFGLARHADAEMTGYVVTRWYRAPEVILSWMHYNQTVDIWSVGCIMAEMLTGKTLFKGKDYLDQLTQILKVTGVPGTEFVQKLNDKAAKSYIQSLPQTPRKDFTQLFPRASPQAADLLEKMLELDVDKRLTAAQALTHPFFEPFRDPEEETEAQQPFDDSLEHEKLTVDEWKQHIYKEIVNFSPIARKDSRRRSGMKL
Summary of the method: (§1)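 Two 10 µM single-concentration screens were run: a competition-binding screen, in which DNA-tagged kinase bound to immobilized ligands was quantified by qPCR, and a radiometric activity panel at Km ATP. Each is expressed as residual kinase activity (%).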

JNK1α1(h) = molecular target: T2, JNK1α1(h) (Homo sapiens, UniProt P45983)
T2 construct: gene MAPK8; isoform alpha1
Summary of the method: as §1

PDHK2(h) = molecular target: T3, PDHK2(h) (Homo sapiens, UniProt Q15119)
T3 construct: gene PDK2
Summary of the method: as §1

VRK2(h) = VRK2(h) (Homo sapiens, UniProt Q86Y07)
Summary of the method: as §1

Flt4(h) = Flt4(h) (Homo sapiens, UniProt P35916)
Summary of the method: as §1

Fms(Y969C)(h) = molecular target: T4, Fms(Y969C)(h) (Homo sapiens, UniProt P07333, Y969C)
T4 construct: gene CSF1R
Summary of the method: as §1

GRK7(h) = molecular target: T5, GRK7(h) (Homo sapiens, UniProt Q8WTQ7)
T5 sequence (Q8WTQ7 1-553): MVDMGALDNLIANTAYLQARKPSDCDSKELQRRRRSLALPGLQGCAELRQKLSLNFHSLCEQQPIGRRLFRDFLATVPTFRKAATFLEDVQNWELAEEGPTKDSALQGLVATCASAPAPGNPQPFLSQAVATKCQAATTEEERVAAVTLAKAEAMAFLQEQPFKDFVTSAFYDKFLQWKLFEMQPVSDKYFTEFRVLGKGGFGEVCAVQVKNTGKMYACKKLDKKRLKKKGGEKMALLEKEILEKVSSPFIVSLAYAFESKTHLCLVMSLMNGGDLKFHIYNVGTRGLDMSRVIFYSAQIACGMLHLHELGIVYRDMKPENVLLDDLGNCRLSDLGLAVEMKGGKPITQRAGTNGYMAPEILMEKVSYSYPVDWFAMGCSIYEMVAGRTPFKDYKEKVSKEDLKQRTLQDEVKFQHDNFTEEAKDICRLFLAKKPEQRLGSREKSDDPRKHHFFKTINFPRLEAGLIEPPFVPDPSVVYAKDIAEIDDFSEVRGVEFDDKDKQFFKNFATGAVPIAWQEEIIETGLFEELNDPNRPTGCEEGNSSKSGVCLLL
Summary of the method: as §1

DRAK2(h) = molecular target: T6, DRAK2(h) (Homo sapiens, UniProt O94768)
T6 construct: gene STK17B
T6 sequence (O94768 1-372): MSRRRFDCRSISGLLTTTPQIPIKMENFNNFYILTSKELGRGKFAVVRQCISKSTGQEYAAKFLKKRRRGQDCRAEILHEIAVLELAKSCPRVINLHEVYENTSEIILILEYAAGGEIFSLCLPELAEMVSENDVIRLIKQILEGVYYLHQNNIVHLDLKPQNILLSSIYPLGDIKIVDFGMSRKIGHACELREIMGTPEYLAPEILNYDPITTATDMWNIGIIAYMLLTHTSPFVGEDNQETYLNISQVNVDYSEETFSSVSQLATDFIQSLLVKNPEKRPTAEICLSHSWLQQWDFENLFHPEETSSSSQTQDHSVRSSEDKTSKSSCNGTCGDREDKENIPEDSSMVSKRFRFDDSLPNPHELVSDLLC
Summary of the method: as §1

EGFR(T790M,L858R)(h) = EGFR(T790M,L858R)(h) (Homo sapiens, UniProt P00533, L858R/T790M)
Summary of the method: as §1

Fms(h) = molecular target: T7, Fms(h) (Homo sapiens, UniProt P07333)
T7 construct: gene CSF1R
Summary of the method: as §1

SIK3(h) = SIK3(h) (Homo sapiens, UniProt Q9Y2K2)
Summary of the method: as §1

[1] = read-out: Residual activity (%) Spautin-1 5aa
[2] = read-out: Residual activity (%) 5as
[3] = read-out: Residual activity (%) 5at
[4] = read-out: Residual activity (%) 5ay

T4 sequence (P07333 whole entry Y969C): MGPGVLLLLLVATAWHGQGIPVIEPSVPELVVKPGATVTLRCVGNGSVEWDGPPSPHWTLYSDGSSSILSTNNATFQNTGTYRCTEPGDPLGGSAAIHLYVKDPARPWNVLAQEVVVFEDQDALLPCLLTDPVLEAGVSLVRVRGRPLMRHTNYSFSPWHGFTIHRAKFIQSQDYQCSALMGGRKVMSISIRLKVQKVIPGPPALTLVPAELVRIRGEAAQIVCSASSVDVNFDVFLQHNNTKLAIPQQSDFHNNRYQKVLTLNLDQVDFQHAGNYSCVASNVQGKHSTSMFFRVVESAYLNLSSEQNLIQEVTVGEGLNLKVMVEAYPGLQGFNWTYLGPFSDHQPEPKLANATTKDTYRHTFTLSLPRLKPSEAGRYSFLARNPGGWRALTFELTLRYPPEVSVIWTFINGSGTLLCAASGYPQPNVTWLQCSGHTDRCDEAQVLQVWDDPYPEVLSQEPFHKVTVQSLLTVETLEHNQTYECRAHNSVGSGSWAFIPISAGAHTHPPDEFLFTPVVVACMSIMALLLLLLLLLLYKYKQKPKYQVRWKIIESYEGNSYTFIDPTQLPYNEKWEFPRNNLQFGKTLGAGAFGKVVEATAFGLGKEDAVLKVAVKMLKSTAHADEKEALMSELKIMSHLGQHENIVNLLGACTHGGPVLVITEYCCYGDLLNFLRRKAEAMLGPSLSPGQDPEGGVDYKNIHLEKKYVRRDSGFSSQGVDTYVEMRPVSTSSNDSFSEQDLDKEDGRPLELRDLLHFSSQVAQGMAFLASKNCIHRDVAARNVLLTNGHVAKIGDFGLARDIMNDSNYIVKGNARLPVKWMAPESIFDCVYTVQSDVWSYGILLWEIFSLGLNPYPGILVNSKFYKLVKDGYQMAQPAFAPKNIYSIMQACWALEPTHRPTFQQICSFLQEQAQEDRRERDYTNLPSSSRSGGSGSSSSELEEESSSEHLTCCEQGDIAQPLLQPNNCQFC
T2 sequence (P45983 whole entry, canonical isoform): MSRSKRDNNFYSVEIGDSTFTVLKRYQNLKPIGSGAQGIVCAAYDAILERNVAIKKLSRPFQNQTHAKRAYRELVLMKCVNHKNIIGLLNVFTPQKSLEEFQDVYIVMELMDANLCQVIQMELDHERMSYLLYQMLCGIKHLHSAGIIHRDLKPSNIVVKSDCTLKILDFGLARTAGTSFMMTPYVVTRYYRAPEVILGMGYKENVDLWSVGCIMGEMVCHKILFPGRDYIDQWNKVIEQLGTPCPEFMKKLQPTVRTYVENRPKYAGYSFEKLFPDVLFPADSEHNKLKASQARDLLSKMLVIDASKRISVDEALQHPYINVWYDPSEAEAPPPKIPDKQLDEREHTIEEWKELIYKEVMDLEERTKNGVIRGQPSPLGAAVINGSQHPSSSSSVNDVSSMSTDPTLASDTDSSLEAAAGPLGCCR
Chain of Flt4(h) (P35916 whole entry): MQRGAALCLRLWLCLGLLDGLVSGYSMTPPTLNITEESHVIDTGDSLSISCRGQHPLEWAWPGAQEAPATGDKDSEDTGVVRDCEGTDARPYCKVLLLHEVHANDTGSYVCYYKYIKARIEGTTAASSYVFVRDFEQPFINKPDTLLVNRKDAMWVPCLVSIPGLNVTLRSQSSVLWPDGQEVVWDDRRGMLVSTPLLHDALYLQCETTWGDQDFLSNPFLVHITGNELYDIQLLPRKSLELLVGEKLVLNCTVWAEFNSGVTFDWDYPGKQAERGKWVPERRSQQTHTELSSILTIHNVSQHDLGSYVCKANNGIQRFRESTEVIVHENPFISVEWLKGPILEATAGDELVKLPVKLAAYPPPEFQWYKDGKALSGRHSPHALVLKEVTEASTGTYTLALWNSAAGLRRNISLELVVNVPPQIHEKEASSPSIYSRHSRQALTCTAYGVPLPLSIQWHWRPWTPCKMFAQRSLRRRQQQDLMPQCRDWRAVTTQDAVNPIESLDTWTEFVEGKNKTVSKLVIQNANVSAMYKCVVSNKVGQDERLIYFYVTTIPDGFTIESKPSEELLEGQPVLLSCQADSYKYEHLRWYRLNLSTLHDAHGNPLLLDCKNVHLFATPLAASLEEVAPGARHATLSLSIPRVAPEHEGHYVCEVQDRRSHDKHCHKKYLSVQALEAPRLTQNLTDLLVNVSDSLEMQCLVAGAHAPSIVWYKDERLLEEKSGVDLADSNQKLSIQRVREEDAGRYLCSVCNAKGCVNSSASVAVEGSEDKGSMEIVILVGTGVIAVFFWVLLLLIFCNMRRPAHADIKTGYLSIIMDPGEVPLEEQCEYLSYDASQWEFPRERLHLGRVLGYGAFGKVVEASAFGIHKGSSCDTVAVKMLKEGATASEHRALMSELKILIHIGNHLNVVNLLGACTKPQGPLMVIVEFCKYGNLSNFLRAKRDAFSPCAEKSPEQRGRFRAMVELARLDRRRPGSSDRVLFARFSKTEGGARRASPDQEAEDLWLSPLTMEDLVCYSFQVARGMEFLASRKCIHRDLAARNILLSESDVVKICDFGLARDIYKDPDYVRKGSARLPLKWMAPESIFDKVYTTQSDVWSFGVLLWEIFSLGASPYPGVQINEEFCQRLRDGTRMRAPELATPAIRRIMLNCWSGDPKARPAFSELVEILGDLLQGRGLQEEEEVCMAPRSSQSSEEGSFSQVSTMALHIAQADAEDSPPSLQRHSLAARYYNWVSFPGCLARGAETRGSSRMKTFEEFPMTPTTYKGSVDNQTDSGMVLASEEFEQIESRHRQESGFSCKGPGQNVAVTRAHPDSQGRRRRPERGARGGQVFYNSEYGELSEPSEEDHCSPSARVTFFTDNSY
Chain of EGFR(T790M,L858R)(h) (P00533 whole entry T790M/L858R): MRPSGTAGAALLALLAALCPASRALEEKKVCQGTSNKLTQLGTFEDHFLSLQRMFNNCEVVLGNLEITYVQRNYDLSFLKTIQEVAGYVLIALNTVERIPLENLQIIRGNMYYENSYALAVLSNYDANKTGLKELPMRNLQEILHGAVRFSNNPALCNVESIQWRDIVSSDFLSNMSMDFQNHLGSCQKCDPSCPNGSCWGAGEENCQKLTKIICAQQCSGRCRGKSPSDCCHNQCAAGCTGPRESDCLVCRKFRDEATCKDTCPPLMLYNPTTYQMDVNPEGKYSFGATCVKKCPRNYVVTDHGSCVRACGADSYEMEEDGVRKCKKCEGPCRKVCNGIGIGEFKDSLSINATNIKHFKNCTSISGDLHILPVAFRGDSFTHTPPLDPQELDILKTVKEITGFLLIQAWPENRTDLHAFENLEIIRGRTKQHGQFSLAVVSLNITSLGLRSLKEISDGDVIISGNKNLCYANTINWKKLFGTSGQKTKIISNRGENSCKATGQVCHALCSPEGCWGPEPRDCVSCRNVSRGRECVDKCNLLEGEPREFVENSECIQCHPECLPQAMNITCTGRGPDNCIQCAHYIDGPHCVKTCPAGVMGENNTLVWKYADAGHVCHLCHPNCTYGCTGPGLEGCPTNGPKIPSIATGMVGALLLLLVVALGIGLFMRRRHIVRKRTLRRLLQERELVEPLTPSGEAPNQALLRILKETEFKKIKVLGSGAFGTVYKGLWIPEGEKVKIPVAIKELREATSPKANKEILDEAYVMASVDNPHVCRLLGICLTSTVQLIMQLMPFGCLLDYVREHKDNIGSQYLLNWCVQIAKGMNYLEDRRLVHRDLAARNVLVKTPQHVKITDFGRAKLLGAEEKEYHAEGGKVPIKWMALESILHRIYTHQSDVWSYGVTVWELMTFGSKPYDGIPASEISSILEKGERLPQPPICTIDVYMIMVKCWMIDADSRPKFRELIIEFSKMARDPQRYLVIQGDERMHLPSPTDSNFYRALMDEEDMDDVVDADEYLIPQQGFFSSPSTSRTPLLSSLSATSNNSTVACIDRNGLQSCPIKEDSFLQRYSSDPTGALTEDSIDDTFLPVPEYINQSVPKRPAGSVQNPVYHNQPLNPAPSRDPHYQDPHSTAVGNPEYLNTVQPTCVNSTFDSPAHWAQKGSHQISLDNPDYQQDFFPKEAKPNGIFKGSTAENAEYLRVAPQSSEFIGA
Chain of VRK2(h) (Q86Y07 whole entry): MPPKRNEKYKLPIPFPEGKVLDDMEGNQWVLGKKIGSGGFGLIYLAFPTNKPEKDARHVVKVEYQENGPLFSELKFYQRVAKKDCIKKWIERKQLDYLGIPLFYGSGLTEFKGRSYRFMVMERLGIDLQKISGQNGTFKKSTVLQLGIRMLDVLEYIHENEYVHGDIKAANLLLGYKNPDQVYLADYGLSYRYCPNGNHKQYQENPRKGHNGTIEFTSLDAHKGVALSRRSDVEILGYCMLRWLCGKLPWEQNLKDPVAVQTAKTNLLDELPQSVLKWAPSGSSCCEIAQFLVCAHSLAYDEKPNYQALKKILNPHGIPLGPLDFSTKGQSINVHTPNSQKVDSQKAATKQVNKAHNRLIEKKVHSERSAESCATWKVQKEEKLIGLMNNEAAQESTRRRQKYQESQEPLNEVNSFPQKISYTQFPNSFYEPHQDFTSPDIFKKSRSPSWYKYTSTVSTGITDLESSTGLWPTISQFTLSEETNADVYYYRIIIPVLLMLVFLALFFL
T7 sequence (P07333 whole entry): as the sequence (P07333 whole entry Y969C) above, with C969Y counted along it

## Fc1ccc(CNc2ncnc3ccc(F)cc23)cc1 [5aa, 6-Fluoro-N-(4-fluorobenzyl)-4-Quinazolinamine]
SAPK4(h); [1]
  remaining activity at 10 µM: 97%
JNK1α1(h); [1]
  remaining activity at 10 µM: 98%
PDHK2(h); [1]
  remaining activity at 10 µM: 103%
VRK2(h); [1]
  remaining activity at 10 µM: 91%
Flt4(h); [1]
  remaining activity at 10 µM: 92%
Fms(Y969C)(h); [1]
  remaining activity at 10 µM: 81%
GRK7(h); [1]
  remaining activity at 10 µM: 87%
DRAK2(h); [1]
  remaining activity at 10 µM: 88%
EGFR(T790M,L858R)(h); [1]
  remaining activity at 10 µM: 96%
Fms(h); [1]
  remaining activity at 10 µM: 94%
SIK3(h); [1]
  remaining activity at 10 µM: 95%

## Fc1ccc(CCNc2ncnc3ccc(F)cc23)cc1 [5as, 6-Fluoro-N-[2-(4-Fluorophenyl)Ethyl]-4-Quinazolinamine]
SAPK4(h); [2]
  remaining activity at 10 µM: 105%
JNK1α1(h); [2]
  remaining activity at 10 µM: 83%
PDHK2(h); [2]
  remaining activity at 10 µM: 93%
VRK2(h); [2]
  remaining activity at 10 µM: 99%
Flt4(h); [2]
  remaining activity at 10 µM: 81%
Fms(Y969C)(h); [2]
  remaining activity at 10 µM: 80%
GRK7(h); [2]
  remaining activity at 10 µM: 95%
DRAK2(h); [2]
  remaining activity at 10 µM: 73%
EGFR(T790M,L858R)(h); [2]
  remaining activity at 10 µM: 93%
Fms(h); [2]
  remaining activity at 10 µM: 72%
SIK3(h); [2]
  remaining activity at 10 µM: 79%

## Fc1ccc2ncnc(NCCc3ccc(Cl)cc3)c2c1 [5at, N-[2-(4-Chlorophenyl)Ethyl]-6-Fluoro-4-Quinazolinamine]
SAPK4(h); [3]
  remaining activity at 10 µM: 92%
JNK1α1(h); [3]
  remaining activity at 10 µM: 98%
PDHK2(h); [3]
  remaining activity at 10 µM: 87%
VRK2(h); [3]
  remaining activity at 10 µM: 94%
Flt4(h); [3]
  remaining activity at 10 µM: 90%
Fms(Y969C)(h); [3]
  remaining activity at 10 µM: 78%
GRK7(h); [3]
  remaining activity at 10 µM: 93%
DRAK2(h); [3]
  remaining activity at 10 µM: 88%
EGFR(T790M,L858R)(h); [3]
  remaining activity at 10 µM: 85%
Fms(h); [3]
  remaining activity at 10 µM: 64%
SIK3(h); [3]
  remaining activity at 10 µM: 71%

## COc1ccc2ncnc(Nc3cccc(F)c3)c2c1 [5ay, N-(3-Fluorophenyl)-6-Methoxy-4-Quinazolinamine]
SAPK4(h); [4]
  remaining activity at 10 µM: 105%
JNK1α1(h); [4]
  remaining activity at 10 µM: 94%
PDHK2(h); [4]
  remaining activity at 10 µM: 94%
VRK2(h); [4]
  remaining activity at 10 µM: 88%
Flt4(h); [4]
  remaining activity at 10 µM: 66%
Fms(Y969C)(h); [4]
  remaining activity at 10 µM: 87%
GRK7(h); [4]
  remaining activity at 10 µM: 91%
DRAK2(h); [4]
  remaining activity at 10 µM: 65%
EGFR(T790M,L858R)(h); [4]
  remaining activity at 10 µM: 69%
Fms(h); [4]
  remaining activity at 10 µM: 90%
SIK3(h); [4]
  remaining activity at 10 µM: 81%
